Patent publication US8067395B2, “Inhibitors of tyrosine kinases and uses thereof” (Pharmacyclics, Inc., priority 2006, dated 2011)

biological target: Btk (Homo sapiens, UniProt Q06187); assay: Btk TR-FRET kinase inhibition assay; type: biochemical; details: pH 7.4, ATP at the Km for the kinase, 1 μM peptide substrate, [Btk]total=0.5 nM, read-out: Btk-TRFRET (Ki)
Experimental: Suitable in vitro assays for measuring kinase activity and the inhibition thereof by compounds are known (e.g., see Kuzmic et al. Anal. Biochem. 2000, 286, 45-50).
The following protocol represents an assay for determination of inhibition of kinases under physiological conditions (pH 7.4). Kinase activity was determined using a time-resolved fluorescence resonance energy transfer (TR-FRET) methodology. Measurements were performed in a reaction volume of 50 μL using 96-well assay plates. Kinase enzyme, inhibitor, ATP (at the Km for the kinase), and 1 μM peptide substrate (Biotin-AVLESEEELYSSARQ-NH2) were incubated in a reaction buffer composed of 20 mM Tris, 50 mM NaCl, MgCl2 (5-25 mM depending on the kinase), 1 mM DTT, 0.1 mM EDTA, 0.01% bovine serum albumin, 0.005% Tween-20, and 10% DMSO at pH 7.4 for one hour. The reaction was quenched by the addition of 1.2 equivalents of EDTA (relative to Mg^2+) in 25 μL of 1× Lance buffer (Perkin-Elmer). Streptavidin-APC (Perkin-Elmer) and Eu-labeled p-Tyr100 antibody (Perkin-Elmer) in 1× Lance buffer were added in a 25 μL volume to give final concentrations of 100 nM and 2.5 nM, respectively, and the mixture was allowed to incubate for one hour. The TR-FRET signal was measured on a multimode plate reader with an excitation wavelength of 330 nm and detection wavelengths of 615 nm and 665 nm. Activity was determined by the ratio of the fluorescence at 665 nm to that at 615 nm. For each compound, enzyme activity was measured at various concentrations of compound. Negative control reactions were performed in the absence of inhibitor in replicates of six, and two no-enzyme controls were used to determine baseline fluorescence levels. Inhibition constants were obtained using the program BatchKi (Kuzmic et al. Anal. Biochem. 2000, 286, 45-50). IC50s were obtained according to this equation: IC50={Ki(app)/(1+[ATP]/Km^ATP)}+[E]total/2; for all kinases, [ATP]=Km^ATP, [Btk]total=0.5 nM and [Lck]total=6 nM.

Sequence of Btk (Q06187 whole entry): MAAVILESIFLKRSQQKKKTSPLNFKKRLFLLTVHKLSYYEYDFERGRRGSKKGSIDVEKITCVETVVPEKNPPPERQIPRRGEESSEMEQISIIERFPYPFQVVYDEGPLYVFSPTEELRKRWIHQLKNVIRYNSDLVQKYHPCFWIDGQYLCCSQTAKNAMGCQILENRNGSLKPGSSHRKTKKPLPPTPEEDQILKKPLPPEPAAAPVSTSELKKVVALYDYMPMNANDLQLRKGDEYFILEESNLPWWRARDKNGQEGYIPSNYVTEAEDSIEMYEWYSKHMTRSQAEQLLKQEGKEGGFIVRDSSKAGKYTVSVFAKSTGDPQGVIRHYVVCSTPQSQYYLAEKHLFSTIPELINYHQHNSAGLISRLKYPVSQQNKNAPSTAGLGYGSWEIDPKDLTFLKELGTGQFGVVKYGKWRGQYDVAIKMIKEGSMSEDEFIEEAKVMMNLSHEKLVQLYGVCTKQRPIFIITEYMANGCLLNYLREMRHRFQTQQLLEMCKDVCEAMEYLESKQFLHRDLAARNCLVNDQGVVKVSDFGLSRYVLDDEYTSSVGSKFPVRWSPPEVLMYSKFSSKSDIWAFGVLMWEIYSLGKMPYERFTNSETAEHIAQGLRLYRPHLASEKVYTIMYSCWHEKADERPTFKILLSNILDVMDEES

Row | Compound | Ki
1 | CC(=O)N1CCN(CC=Cc2[nH]c(=O)c3c(ccc4nc(Nc5ccc(F)cc5C)n(C)c43)c2C)CC1 [Compound 21, 2-(4-fluoro-2-methylphenylamino)-1,6-dimethyl-7-[3-(N-methylcarbonylpiperazin-1-yl)-propenyl]-1,8-dihydro-imidazo[4,5-h]isoquinolin-9-one] | < 100 nM
2 | Cc1cc(F)ccc1Nc1nc2ccc3c(C)c(C=CCN4CCN(C(=O)c5ccccc5)CC4)[nH]c(=O)c3c2n1C [Compound 22, 2-(4-fluoro-2-methylphenylamino)-1,6-dimethyl-7-[3-(N-phenylcarbonylpiperazin-1-yl)-propenyl]-1,8-dihydro-imidazo[4,5-h]isoquinolin-9-one] | < 100 nM
3 | Cc1cc(F)ccc1Nc1nc2ccc3c(C)c(C=CCN4CCN(c5ccncc5)CC4)[nH]c(=O)c3c2n1C [Compound 23, 2-(4-fluoro-2-methylphenylamino)-1,6-dimethyl-7-[3-(N-(pyridin-4-yl)-piperazin-1-yl)-propenyl]-1,8-dihydro-imidazo[4,5-h]isoquinolin-9-one] | < 100 nM
4 | Cc1cc(F)ccc1Nc1nc2ccc3c(C)c(/C=C/CN4CCN(S(C)(=O)=O)CC4)[nH]c(=O)c3c2n1C [Compound 24, 2-(4-fluoro-2-methylphenylamino)-1,6-dimethyl-7-[3-(N-methylsulfonylpiperazin-1-yl)-propenyl]-1,8-dihydro-imidazo[4,5-h]isoquinolin-9-one] | < 100 nM
5 | Cc1cc(F)ccc1Nc1nc2ccc3c(C)c(C=CCN4CCN(c5ccccn5)CC4)[nH]c(=O)c3c2n1C [Compound 26, 2-(4-fluoro-2-methylphenylamino)-1,6-dimethyl-7-[3-(N-(pyridin-2-yl)-piperazin-1-yl)-propenyl]-1,8-dihydro-imidazo[4,5-h]isoquinolin-9-one] | < 100 nM
6 | Cc1cc(F)ccc1Nc1nc2ccc3c(C)c(C=CCN4CCN(c5ncccn5)CC4)[nH]c(=O)c3c2n1C [Compound 27, 2-(4-fluoro-2-methylphenylamino)-1,6-dimethyl-7-[3-(N-(pyrimidin-2-yl)-piperazin-1-yl)-propenyl]-1,8-dihydro-imidazo[4,5-h]isoquinolin-9-one] | < 100 nM
7 | Cc1cc(F)ccc1Nc1nc2ccc3c(C)c(C=CCN4CCN(Cc5c(Cl)cccc5Cl)CC4)[nH]c(=O)c3c2n1C [Compound 28, 2-(4-fluoro-2-methylphenylamino)-1,6-dimethyl-7-[3-(N-(2,6-dichlorophenylmethyl)-piperazin-1-yl)-propenyl]-1,8-dihydro-imidazo[4,5-h]isoquinolin-9-one] | < 100 nM
8 | Cc1cc(F)ccc1Nc1nc2ccc3c(C)c(C=CCN4CCN(S(=O)(=O)c5ccccc5)CC4)[nH]c(=O)c3c2n1C [Compound 29, 2-(4-fluoro-2-methylphenylamino)-1,6-dimethyl-7-[3-(N-phenylsulfonylpiperazin-1-yl)-propenyl]-1,8-dihydro-imidazo[4,5-h]isoquinolin-9-one] | < 100 nM
9 | Cc1cc(F)ccc1Nc1nc2ccc3c(C)c(/C=C/CN4CCN(c5ccc(F)cc5)CC4)[nH]c(=O)c3c2n1C [Compound 30, 2-(4-fluoro-2-methylphenylamino)-1,6-dimethyl-7-[3-(N-(4-fluorophenyl)-piperazin-1-yl)-propenyl]-1,8-dihydro-imidazo[4,5-h]isoquinolin-9-one] | < 100 nM
10 | Cc1cc(F)ccc1Nc1nc2ccc3c(C)c(C=CCN4CCN(C(=O)OC(C)(C)C)CC4)[nH]c(=O)c3c2n1C [Compound 31, 2-(4-fluoro-2-methylphenylamino)-1,6-dimethyl-7-[3-(N-tert-butyloxycarbonylpiperazin-1-yl)-propenyl]-1,8-dihydro-imidazo[4,5-h]isoquinolin-9-one] | < 100 nM
11 | Cc1cc(F)ccc1Nc1nc2ccc3c(C)c(C=CCN4CCN(S(=O)(=O)N(C)C)CC4)[nH]c(=O)c3c2n1C [Compound 32, 2-(4-fluoro-2-methylphenylamino)-1,6-dimethyl-7-[3-(N—(N,N-dimethylaminosulfonyl)-piperazin-1-yl)-propenyl]-1,8-dihydro-imidazo[4,5-h]isoquinolin-9-one] | < 100 nM
